This is an account of results in PMC6290913 (Journal of medicinal chemistry, 2018).

Assay [1] has as its target Mouse uPA (active mouse urokinase, HMW) (Mus musculus, UniProt P06869).
The test system of another assay is Trypsin. The assay is described as follows: Chromogenic TLSP activity assay, trypsin. The assay is classed as biochemical. The settings on record: read-out: Trypsin IC50; chromogenic enzyme inhibition assay.
Assay [2] concerns the target human ENaCs (α, β, and γ subunits) (Homo sapiens, UniProt P37088+P51168+P51170). The assay is described as follows: ENaC inhibition assay. Type of assay: cell-based. The settings on record: 10 μM compound; transfected HEK-293 cells.
The next assay concerns the target uPA (Homo sapiens, UniProt P00749). The assay is described as follows: EnPlex activity-based protein profiling, uPA. The conditions noted are these: 33.3 μM to 10 nM; semiquantitative.
The test system of the next assay is 85 serine hydrolases. The conditions noted are these: 33.3 μM to 10 nM; semiquantitative.
Assay [3] addresses low molecular weight human uPA (Homo sapiens, UniProt P00749). The assay is described as follows: Fluorometric uPA activity assay. The conditions noted are these: relative to HMA 5. Type of assay: biochemical.
The subject of assay [4] is AsPC-1 human pancreatic cancer cells + human pancreatic stellate cells. The assay is described as follows: Orthotopic xenograft mouse model of pancreatic cancer. The settings on record: for liver metastases: 18 or 26 10 mg/kg ip daily for 28 days, compared to gemcitabine.

As a reminder, the IC50 is the concentration needed to halve the response being measured.

Sequence of Mouse uPA (active mouse urokinase, HMW) (P06869 180-433 limits assumed): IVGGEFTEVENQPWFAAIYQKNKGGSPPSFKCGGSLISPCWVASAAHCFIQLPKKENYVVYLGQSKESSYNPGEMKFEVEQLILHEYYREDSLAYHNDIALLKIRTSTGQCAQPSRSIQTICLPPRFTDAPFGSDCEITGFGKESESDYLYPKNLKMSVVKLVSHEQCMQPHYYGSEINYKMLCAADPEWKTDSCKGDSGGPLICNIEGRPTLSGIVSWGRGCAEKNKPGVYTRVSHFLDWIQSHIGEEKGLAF
Sequence of Mouse uPA (active mouse urokinase, HMW) (P06869 21-178 partner limits assumed): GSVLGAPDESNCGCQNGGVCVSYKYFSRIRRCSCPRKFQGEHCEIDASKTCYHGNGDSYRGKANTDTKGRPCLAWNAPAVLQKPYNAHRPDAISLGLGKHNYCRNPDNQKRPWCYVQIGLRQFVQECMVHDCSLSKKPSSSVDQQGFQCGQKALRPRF
Sequence of human ENaCs (α, β, and γ subunits) (P51170 whole entry): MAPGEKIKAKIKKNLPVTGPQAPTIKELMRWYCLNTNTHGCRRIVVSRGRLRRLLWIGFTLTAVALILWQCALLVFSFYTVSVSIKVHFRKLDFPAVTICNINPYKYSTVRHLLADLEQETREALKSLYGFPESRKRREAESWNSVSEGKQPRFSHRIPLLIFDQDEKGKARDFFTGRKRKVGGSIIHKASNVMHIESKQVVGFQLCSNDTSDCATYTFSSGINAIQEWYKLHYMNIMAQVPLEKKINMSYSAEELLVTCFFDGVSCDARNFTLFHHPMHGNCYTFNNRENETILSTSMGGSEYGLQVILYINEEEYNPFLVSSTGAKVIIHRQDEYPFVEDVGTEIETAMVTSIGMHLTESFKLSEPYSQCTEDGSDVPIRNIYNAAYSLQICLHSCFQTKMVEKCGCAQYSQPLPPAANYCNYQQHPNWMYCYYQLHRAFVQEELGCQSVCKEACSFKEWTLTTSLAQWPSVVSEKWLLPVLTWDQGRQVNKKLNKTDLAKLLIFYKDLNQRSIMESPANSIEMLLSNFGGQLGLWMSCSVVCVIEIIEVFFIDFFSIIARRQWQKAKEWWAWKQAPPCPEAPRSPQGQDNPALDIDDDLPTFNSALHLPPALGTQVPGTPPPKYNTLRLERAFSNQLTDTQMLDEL
Sequence of human ENaCs (α, β, and γ subunits) (P37088 whole entry): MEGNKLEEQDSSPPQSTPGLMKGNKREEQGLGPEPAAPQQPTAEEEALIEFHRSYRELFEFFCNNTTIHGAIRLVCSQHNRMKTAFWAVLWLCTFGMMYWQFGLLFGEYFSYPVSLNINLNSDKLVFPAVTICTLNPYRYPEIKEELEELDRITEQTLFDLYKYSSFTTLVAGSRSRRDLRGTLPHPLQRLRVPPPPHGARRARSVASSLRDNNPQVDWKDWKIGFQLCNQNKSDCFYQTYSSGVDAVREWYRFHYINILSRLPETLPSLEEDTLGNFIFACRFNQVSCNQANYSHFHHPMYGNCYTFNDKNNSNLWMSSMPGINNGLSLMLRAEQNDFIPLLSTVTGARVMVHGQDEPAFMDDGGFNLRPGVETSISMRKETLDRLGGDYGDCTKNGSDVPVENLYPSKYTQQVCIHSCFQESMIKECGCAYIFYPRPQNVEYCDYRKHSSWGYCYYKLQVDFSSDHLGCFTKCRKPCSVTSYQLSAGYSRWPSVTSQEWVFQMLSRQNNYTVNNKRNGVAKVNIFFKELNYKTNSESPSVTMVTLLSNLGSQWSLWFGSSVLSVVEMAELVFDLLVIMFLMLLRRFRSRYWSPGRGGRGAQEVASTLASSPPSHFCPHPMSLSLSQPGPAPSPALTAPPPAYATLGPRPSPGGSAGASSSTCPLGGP
Sequence of human ENaCs (α, β, and γ subunits) (P51168 whole entry): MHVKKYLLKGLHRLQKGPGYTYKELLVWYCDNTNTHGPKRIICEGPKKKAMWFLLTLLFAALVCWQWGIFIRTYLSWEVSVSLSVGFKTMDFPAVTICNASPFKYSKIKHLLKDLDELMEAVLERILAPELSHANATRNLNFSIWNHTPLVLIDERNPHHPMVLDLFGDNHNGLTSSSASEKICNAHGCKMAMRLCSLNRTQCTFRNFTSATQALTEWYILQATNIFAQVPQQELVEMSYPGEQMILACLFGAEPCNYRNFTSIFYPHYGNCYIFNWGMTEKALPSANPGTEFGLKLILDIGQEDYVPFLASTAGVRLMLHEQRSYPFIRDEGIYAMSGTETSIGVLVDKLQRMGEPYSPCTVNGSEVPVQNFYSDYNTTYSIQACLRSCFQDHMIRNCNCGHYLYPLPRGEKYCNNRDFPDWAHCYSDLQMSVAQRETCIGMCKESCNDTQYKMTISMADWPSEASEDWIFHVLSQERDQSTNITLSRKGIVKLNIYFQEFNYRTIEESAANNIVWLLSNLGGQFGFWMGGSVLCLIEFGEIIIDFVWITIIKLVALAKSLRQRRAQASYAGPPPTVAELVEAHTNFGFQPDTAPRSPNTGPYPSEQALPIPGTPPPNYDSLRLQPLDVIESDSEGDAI

As to `N=C(N)NC(=O)c1nc(Cl)c(N2CCCCCC2)nc1N` [Compound 5, 5-N,N-(hexamethylene)amiloride, reference compound], the “decrease in affinity for mouse uPA versus human uPA” value (shortened to “decrease in affinity”) in assay [1] is about 7 fold. In addition, the IC50 in the assay on Trypsin was over 10 µM. In assay [2], the “inhibition of ENaC” value is given as “greatly reduced activity”. On uPA, the “inhibitory activity against uPA in EnPlex screen” value is “not observed”. For the same compound, the “serine hydrolases inhibited in EnPlex screen” value (“serine hydrolases inhibited” below) in the assay on 85 serine hydrolases is “activity against the highly homologous S28 protease family members dipeptidyl peptidase 2 (DPP7) and prolylcarboxypeptidase (PRCP)”.

Turning to `N=C(N)NC(=O)c1nc(-c2ccccc2)c(N2CCCCCC2)nc1N` [Compound 9], the “decrease in uPA potency relative to HMA” value in assay [3] was ~ 3.7 fold.

With `N=C(N)NC(=O)c1nc(-c2cncc3ccccc23)c(N2CCCCCC2)nc1N` [Compound 13, 3-Amino-5-(azepan-1-yl)-N-carbamimidoyl-6-(isoquinolin-4-yl)pyrazine-2-carboxamide], in assay [3], the “decrease in uPA potency relative to HMA” value is about 3 fold.

In the case of `Cn1cc(-c2nc(C(=O)NC(=N)N)c(N)nc2N2CCCCCC2)cn1` [Compound 14, 3-Amino-5-(azepan-1-yl)-N-carbamimidoyl-6-(1-methyl-1H-pyrazol-4-yl)pyrazine-2-carboxamide], the “increase in uPA potency relative to HMA” value in assay [3] was ~ 2.7 fold.

Take `N=C(N)NC(=O)c1nc(-c2cc3ccccc3o2)c(N2CCCCCC2)nc1N` [Compound 18, 3-Amino-5-(azepan-1-yl)-6-(benzofuran-2-yl)-N-carbamimidoylpyrazine-2-carboxamide]: the liver metastases entry in assay [4] is given as “reduced”. Moreover, the “decrease in affinity” value in assay [1] is 10- to 30 fold. Besides, the IC50 in the assay with Trypsin is over 10 µM. Moreover, in the assay on 85 serine hydrolases, the “serine hydrolases inhibited” value was “inhibiting plasma kallikrein (KLKb1) and trypsin”.

In the case of `N=C(N)NC(=O)c1nc(-c2ccco2)c(N2CCCCCC2)nc1N` [Compound 22, 3-Amino-5-(azepan-1-yl)-N-carbamimidoyl-6-(furan-2-yl)-pyrazine-2-carboxamide], the “increase in uPA potency relative to HMA” value in assay [3] is on record as ~ 8.7 fold.

For the compound `N=C(N)NC(=O)c1nc(-c2cncnc2)c(N2CCCCCC2)nc1N` [Compound 25, 3-Amino-5-(azepan-1-yl)-N-carbamimidoyl-6-(pyrimidin-5-yl)pyrazine-2-carboxamide], in assay [3], the “increase in uPA potency relative to HMA” value is ~ 12.6 fold. Also, the “serine hydrolases inhibited” value in the assay on 85 serine hydrolases is given as “slight inhibition of trypsin being the only off-target TLSP activity observed”.

As for `COc1ncc(-c2nc(C(=O)NC(=N)N)c(N)nc2N2CCCCCC2)cn1` [Compound 26, 3-Amino-5-(azepan-1-yl)-N-carbamimidoyl-6-(2-methoxypyrimidin-5-yl)pyrazine-2-carboxamide], in assay [4], the liver metastases entry is “no macroscopic metastatic lesions observed”. Also, the “decrease in affinity” value in assay [1] is reported as 10- to 30 fold. Further, the “serine hydrolases inhibited” value in the assay with 85 serine hydrolases is “slight activity against C1s, plasma kallikrein, plasmin, prolylcarboxy peptidase, trypsin, and transmembrane protease serine 11D (TMPRSS11d)”.

Turning to `Nc1ccn([C@@H]2O[C@H](CO)[C@@H](O)C2(F)F)c(=O)n1` [gemcitabine, reference compound], the “effect on end point primary tumor volume” value in assay [4] (gemcitabine 75 mg/kg po twice weekly, 18 or 26 10 mg/kg ip daily, 28 days) is “only modest inhibitory effects”.
